{"source": "patent US12257347B2", "about": "“Pharmaceutical composition comprising meta arsenite and method of manufacture” (KOMIPHARM INT[…] PTY LTD, priority 2018, dated 2025)", "key": {"[1]": {"assay": "Solubility of the supplied SMA drug substance", "type": "physicochemical", "source_text": "(§1) Sodium meta-arsenite (“SMA”) was obtained from Sigma Aldrich Fine Chemicals. […]"}, "[2]": {"assay": "Hygroscopicity (moisture uptake) of the supplied SMA drug substance", "type": "physicochemical", "source_text": "as §1"}}, "data": [{"molecule": "O=[As][O-].[Na+]", "note": "[SMA, sodium meta-arsenite]", "values": [{"measurement": "Solubility", "setting": "[1]", "result": "Approx. 950 mg/mL"}, {"measurement": "Hygroscopicity (moisture uptake)", "setting": "[2]; at 75% RH", "result": "~40", "unit": "% at 75% RH"}, {"measurement": "Hygroscopicity (moisture uptake)", "setting": "[2]; at 80% RH", "result": ">80", "unit": "% at 80% RH"}, {"measurement": "Hygroscopicity (moisture uptake)", "setting": "[2]; at 90% RH", "result": ">130", "unit": "% at 90% RH"}]}]}
